# Test system: not given
# Test: not given
# Conditions: not given
row,SMILES,melting point [°C]
1,"CCCCOCCOc1ccc(-c2ccc(N3CCC4(C3)OCCO4)c(/C=C(\C)C(=O)Nc3ccc([S@@+]([O-])Cc4cncn4CCC)cc3)c2)cc1 [Compound 37, (S)-(2E)-3-[4′-(2-butoxyethoxy)-4-(1,4-dioxa-7-azaspiro[4.4]non-7-yl)-1,1′-biphenyl-3-yl]-2-methyl-N-[4-[[(1-propyl-1H-imidazol-5-yl)methyl]sulfinyl]phenyl]acrylamide]",139.5 to 140.5
2,"CCCCOCCOc1ccc(-c2ccc(N3CCC(C(=O)O)C3)c(/C=C(\C)C(=O)Nc3ccc([S@@+]([O-])Cc4cncn4CCC)cc3)c2)cc1 (some centres unmarked) [Compound 41, (Ss)-(2E)-3-[4′-(2-butoxyethoxy)-4-(3-carboxypyrrolidin-1-yl)-1,1′-biphenyl-3-yl]-2-methyl-N-[4-[[(1-propyl-1H-imidazol-5-yl)methyl]sulfinyl]phenyl]acrylamide]",184 to 186
3,"CCCCOCCOc1ccc(-c2ccc(N3CCC(C(=O)NC)C3)c(/C=C(\C)C(=O)Nc3ccc([S@@+]([O-])Cc4cncn4CCC)cc3)c2)cc1 (some centres unmarked) [Compound 44, (Ss)-(2E)-3-[4′-(2-butoxyethoxy)-4-[3-(methylaminocarbonyl)pyrrolidin-1-yl]-1,1′-biphenyl-3-yl]-2-methyl-N-[4-[[(1-propyl-1H-imidazol-5-yl)methyl]sulfinyl]phenyl]acrylamide]",127 to 128.5
4,"CCCCOCCOc1ccc(-c2ccc(N3CCC(C(=O)N(C)C)C3)c(/C=C(\C)C(=O)Nc3ccc([S@@+]([O-])Cc4cncn4CCC)cc3)c2)cc1 (some centres unmarked) [Compound 45, (Ss)-(2E)-3-[4′-(2-butoxyethoxy)-4-[3-(dimethylaminocarbonyl)pyrrolidin-1-yl]-1,1′-biphenyl-3-yl]-2-methyl-N-[4-[[(1-propyl-1H-imidazol-5-yl)methyl]sulfinyl]phenyl]acrylamide]",151 to 152

# Target: T1, human CCR5 (Homo sapiens, UniProt P51681)
# T1 construct: expressed in transfected cells
# Test: Inhibition of [125I]-RANTES binding to CCR5/CHO cells (CCR5 antagonist activity)
# Conditions: 40 min, test compound 1 μM, [125I]-RANTES 100 pM, CCR5/CHO strains, room temperature, read-out: Binding Inhibitory Ratio (%)
# Description: Cloning of a CCR5 gene was conducted from human spleen cDNA by a PCR method. Using 0.5 ng of spleen cDNA (Toyobo Co., Ltd., QUICK-Clone cDNA) as a template, the PCR reaction was carried out in a DNA Thermal Cycler 480 (Perkin Elmer) using a TaKaRa EX Taq (Takara Shuzo Co., Ltd.) (reaction conditions: 30 cycles of treatments at 95° C. for 1 minute, at 60° C. for 1 minute, and at 75° C. for 5 minutes) by adding 25 pmol of primers, SEQ ID NO. 1 (sequence length: 34; sequence type: nucleic acid; number of chains: a single chain; topology: linear; sequence kind: other nucleic acid, synthetic DNA) described in Experimental Example (1) of WO 99/32100, and SEQ ID NO. 2 (sequence length: 34; sequence type: nucleic acid; number of chains: a single chain; topology: linear; sequence kind: other nucleic acid, synthetic DNA) described in Experimental Example (1) of WO 99/32100, respectively, which were prepared by referring to the base sequence of the CCR5 gene described by Samson et al. (Biochemistry 35 (11), 3362-3367 (1996)). The PCR products were subjected to agarose gel electrophoresis to collect DNA fragments of about 1.0 kb. Then, the CCR5 gene was cloned using an Original TA Cloning Kit (Funakoshi Co., Ltd.).
# The plasmids obtained above were digested with restriction enzymes XbaI (Takara Shuzo Co., Ltd.) and BamHI (Takara Shuzo Co., Ltd.), and subjected to agarose gel electrophoresis to collect DNA fragments of about 1.0 kb. The DNA fragments and a plasmid pcDNA3.1 (Funakoshi Co., Ltd.) for expression in animal cells, which was previously digested with XbaI and BamHI, were mixed and ligated by DNA Ligation Kit Ver.2 (Takara Shuzo Co., Ltd.). Transformation of E. coli JM109 competent cells (Takara Shuzo Co., Ltd.) gave plasmid pCKR5.
# CHO-K1 cells grown in a 750 ml tissue culture flask (Becton Dickinson) using Ham's F12 medium (Nihon Pharmaceutical Co., Ltd.) containing 10% fetal bovine serum (Lifetech Oriental) were collected from the flask by using 0.5 g/L trypsin-0.2 g/L EDTA (Lifetech Oriental). The cells were then washed with PBS (Lifetech Oriental), centrifuged (1000 rpm, 5 minutes), and suspended in PBS. Next, DNA was introduced into the cells using Gene Pulser (Bio-Rad Laboratories Inc.) under the following conditions. Namely, 8×10^6 cells and 10 μg of plasmid pCKR5 for expression of human CCR5 were added into a cuvette of a 0.4 cm-gap, and electroporation was carried out at an electric voltage of 0.25 kV and a capacitance of 960 μF. Subsequently, the cells were transferred into Ham's F12 medium containing 10% fetal bovine serum, and incubated for 24 hours. The cells were again collected, centrifuged, and then suspended in Ham's F12 medium containing 10% fetal bovine serum and Geneticin (Lifetech Oriental) at a concentration of 500 μg/ml. The suspension of cells was diluted to a concentration of 10^4 cells/ml, and inoculated on a 96-well plate (Becton Dickinson) to give Geneticin-resistant strains.
# Subsequently, the Geneticin-resistant strains were cultured in the 96-well plate (Becton Dickinson), and then CCR5-expressing cells were selected from the resistant strains. Namely, an assay buffer (Ham's F12 medium containing 0.5% BSA, and 20 mM HEPES (Wako Pure Chemical Industries, Ltd., pH 7.2)) containing 200 pM [^125I]-RANTES (Amersham) as a ligand was added to each well and the binding reaction was carried out at room temperature for 40 minutes. Each well plate containing the cells was washed with ice-cooled PBS, and then to each well was added 1 M NaOH in an amount of 50 μl/well, which was stirred. The cells to which the ligand bound specifically, i.e., CCR5/CHO strains, were selected by measurement of radioactivity by γ-counter.
# The CCR5/CHO strains were inoculated on a 96-well microplate at a concentration of 5×10^4 cells/well, respectively and were cultured for 24 hours. […]
# T1 sequence (P51681 whole entry): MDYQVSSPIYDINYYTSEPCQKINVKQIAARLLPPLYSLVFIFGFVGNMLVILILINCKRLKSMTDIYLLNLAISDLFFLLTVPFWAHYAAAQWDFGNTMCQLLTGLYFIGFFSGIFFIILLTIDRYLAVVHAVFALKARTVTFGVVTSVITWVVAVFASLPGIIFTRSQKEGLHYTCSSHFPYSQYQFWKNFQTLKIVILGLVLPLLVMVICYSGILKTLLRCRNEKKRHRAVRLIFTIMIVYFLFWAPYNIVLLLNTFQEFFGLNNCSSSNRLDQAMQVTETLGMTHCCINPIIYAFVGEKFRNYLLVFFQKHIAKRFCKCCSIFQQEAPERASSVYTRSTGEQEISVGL
row,SMILES,inhibition at 1 µM [%]
1,"CCCCOCCOc1ccc(-c2ccc(N3CCC(C(=O)O)C3)c(/C=C(\C)C(=O)Nc3ccc([S@@+]([O-])Cc4cncn4CCC)cc3)c2)cc1 (some centres unmarked) [Compound 41, (Ss)-(2E)-3-[4′-(2-butoxyethoxy)-4-(3-carboxypyrrolidin-1-yl)-1,1′-biphenyl-3-yl]-2-methyl-N-[4-[[(1-propyl-1H-imidazol-5-yl)methyl]sulfinyl]phenyl]acrylamide]",100
2,"CCCCOCCOc1ccc(-c2cnc(N3CCC(CO)C3)c(/C=C(\C)C(=O)Nc3ccc([S@@+]([O-])Cc4cncn4CCC)cc3)c2)cc1 (some centres unmarked) [Compound 50, (Ss)-(2E)-3-[5-[4-(2-butoxyethoxy)phenyl]-2-[3-(hydroxymethyl)pyrrolidin-1-yl]pyridin-3-yl]-2-methyl-N-[4-[[(1-propyl-1H-imidazol-5-yl)methyl]sulfinyl]phenyl]acrylamide]",100
3,"CCCCOCCOc1ccc(-c2ccc(N3CCC(CC(=O)OCC)C3)c(/C=C(\C)C(=O)Nc3ccc([S@@+]([O-])Cc4cncn4CCC)cc3)c2)cc1 (some centres unmarked) [Compound 61, (Ss)-(2E)-3-[4′-(2-butoxyethoxy)-4-[3-(2-ethoxy-2-oxoethyl)pyrrolidin-1-yl]-1,1′-biphenyl-3-yl]-2-methyl-N-(4-[[(1-propyl-1H-imidazol-5-yl)methyl]sulfinyl]phenyl]acrylamide]",94
4,"CCCCOCCOc1ccc(-c2ccc(N3CCC(CC(=O)O)C3)c(/C=C(\C)C(=O)Nc3ccc([S@@+]([O-])Cc4cncn4CCC)cc3)c2)cc1 (some centres unmarked) [Compound 62, (Ss)-(2E)-3-[4′-(2-butoxyethoxy)-4-[3-(carboxymethyl)pyrrolidin-1-yl]-1,1′-biphenyl-3-yl]-2-methyl-N-[4-[[(1-propyl-1H-imidazol-5-yl)methyl]sulfinyl]phenyl]acrylamide]",100

# From patent US20060160864A1, “Acrylamide derivative, process for producing the same, and use” (priority 2003, published 2006)
